From US20230192703A1, “Polycyclic amide derivative as CDK9 inhibitor, preparation method therefor and use thereof” (Suzhou AlphaMa Biotechnology Co., Ltd., priority 2020, published 2023)
pIC50: −log10 of the molar value.

Legend:
CDK9 kinase = biological target: T1, CDK9 kinase (Homo sapiens, UniProt P50750); test: Inhibitory effect on the kinase activity of CDK9 in vitro; assay type: biochemical; conditions: CDK9 kinase (Millipore), CTD3 substrate polypeptide, Caliper
T1 construct: purchased Millipore 14-685M
Experimental: The detection of the inhibitory effect of the compounds of the present disclosure on the kinase activity of CDK9 in vitro was determined by the following method:
Compound preparation: The compound was accurately weighed and dissolved in DMSO (Sigma, D2650) to a concentration of 100 um for later use. The compound was diluted to 5-fold of a desired highest concentration, and diluted 4-fold into 6 concentration gradients, allowing the final concentration of the compound in the reaction system to be 100, 25, 6.25, 1.56, 0.39, 0.098 nM. 5 ul was taken to a 384-well plate (Corning, 4512).
Detection: Data was collected by Caliper.
Calculation: The IC50 value was calculated by Graphpad prism 5.0 software according to the concentration of the compound and the corresponding signal value.

Mv4-11 cells = test: Inhibition of the proliferation of Mv4-11 cells (CCK8); assay type: cell-based; conditions: Mv4-11 cell proliferation, CCK8 OD450
Experimental: The inhibition effect of the compounds of the present disclosure on the proliferation of Mv4-11 cells (ATCC:CRL-9591TM) in vitro was determined by the following method:
Cell inoculation: Mv4-11 cells with good growing state in logarithmic growth phase were inoculated into a 96-well plate at 20000 cells per well and 50 uL, and cultured at 37° C. and under 5% CO2 condition for 2-4 h. Administration: The compound was diluted with 1640 medium containing 10% FBS and 1% PS: 0.4 uL of the compound with an initial concentration of 1 mM was placed in a dilution plate, each added with 199.6 uL of the above culture medium, and gradiently diluted 4-fold, so that the final concentration in the added cell was 1000, 250, 62.5, 15.625, 3.91, 0.98, 0.24, 0.06 nM. 50 μL of the medium containing the compound was sequentially added, and it was placed in a 37° C., 5% CO2 cell incubator for 48 hours.
Detection: 10 uL CCK8 (Dojindo, CK 04) solution was added to each well, incubated in 37° C. 5% CO2 cell incubator for 2 hours, and then the OD450 value was read by Synegry H1 (BioTek) multimode microplate reader.
Calculation: The IC50 value was calculated using Graphpad prism 5.0 software according to the concentration of the compound and the corresponding signal value.

T1 sequence (P50750 whole entry): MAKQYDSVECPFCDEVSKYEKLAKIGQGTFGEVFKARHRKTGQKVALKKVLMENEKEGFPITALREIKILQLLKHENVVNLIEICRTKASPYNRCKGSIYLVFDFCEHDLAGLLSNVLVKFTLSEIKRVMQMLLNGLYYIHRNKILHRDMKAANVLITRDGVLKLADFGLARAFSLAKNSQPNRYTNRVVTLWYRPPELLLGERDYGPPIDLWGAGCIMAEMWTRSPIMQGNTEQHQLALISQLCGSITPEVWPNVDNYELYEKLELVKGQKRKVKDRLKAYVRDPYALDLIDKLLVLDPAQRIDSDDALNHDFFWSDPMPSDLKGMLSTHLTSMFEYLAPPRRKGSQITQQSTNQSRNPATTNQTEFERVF
T1 sequence (O60563 whole entry partner): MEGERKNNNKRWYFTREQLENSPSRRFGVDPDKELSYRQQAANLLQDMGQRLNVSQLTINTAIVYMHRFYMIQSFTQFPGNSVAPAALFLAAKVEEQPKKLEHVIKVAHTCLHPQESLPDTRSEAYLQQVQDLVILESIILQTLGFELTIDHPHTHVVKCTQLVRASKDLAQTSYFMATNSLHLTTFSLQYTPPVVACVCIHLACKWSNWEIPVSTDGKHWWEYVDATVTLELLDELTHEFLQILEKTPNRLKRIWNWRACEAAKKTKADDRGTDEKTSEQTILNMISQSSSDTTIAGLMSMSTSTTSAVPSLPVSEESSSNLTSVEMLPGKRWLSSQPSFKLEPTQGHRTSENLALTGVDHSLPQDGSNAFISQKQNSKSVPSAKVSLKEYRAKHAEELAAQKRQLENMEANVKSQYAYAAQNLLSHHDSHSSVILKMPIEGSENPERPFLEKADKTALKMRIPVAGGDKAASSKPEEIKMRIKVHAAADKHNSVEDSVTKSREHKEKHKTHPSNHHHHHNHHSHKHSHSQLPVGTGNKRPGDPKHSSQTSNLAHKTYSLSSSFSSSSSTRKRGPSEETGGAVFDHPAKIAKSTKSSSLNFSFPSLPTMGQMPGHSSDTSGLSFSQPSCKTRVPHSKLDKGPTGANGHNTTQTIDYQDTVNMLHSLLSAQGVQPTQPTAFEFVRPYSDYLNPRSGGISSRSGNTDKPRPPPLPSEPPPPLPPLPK

SMILES | pIC50 (CDK9 kinase) | pIC50 (Mv4-11 cells; Homo sapiens, MV4-11, 48 h) | pIC50 (Mv4-11 cells; 48 hours)
CC(=O)N1C[C@H]2CC(C(=O)Nc3cc(-c4cnn5c4CC(C)(C)C5)c(Cl)cn3)C[C@H]2C1 (single isomer, unassigned) [Compound 4-2] | 8.54 | 8.17 | –
CC(=O)N1C[C@H]2CC(C(=O)Nc3cc(-c4cc(C(N)=O)n5c4CC(C)(C)C5)c(Cl)cn3)C[C@H]2C1 (single isomer, unassigned) [Compound 8-1] | 8.46 | – | 8.11
CC(=O)N1C[C@H]2CC(C(=O)Nc3cc(-c4cc(C(N)=O)n5c4CC(C)(C)C5)c(Cl)cn3)C[C@H]2C1 (single isomer, unassigned) [Compound 8-2] | 8.51 | – | 9.40
CC(=O)N[C@H]1C[C@@H]2C[C@@H](C(=O)Nc3cc(-c4cc(C#N)n5c4CC(C)(C)C5)c(Cl)cn3)C[C@@H]2C1 (single isomer, unassigned) [Compound 14-1-1] | – | 7.62 | –
CC(=O)N[C@@H]1C[C@@H]2C[C@@H](C(=O)Nc3cc(-c4cc(C#N)n5c4CC(C)(C)C5)c(Cl)cn3)C[C@@H]2C1 (single isomer, unassigned) [Compound 14-1-2] | – | 7.95 | –
CC(=O)N[C@H]1C[C@@H]2C[C@H](C(=O)Nc3cc(-c4cc(C#N)n5c4CC(C)(C)C5)c(Cl)cn3)C[C@@H]2C1 (single isomer, unassigned) [Compound 14-2-1] | 8.37 | 7.97 | –
CC(=O)N[C@@H]1C[C@@H]2C[C@H](C(=O)Nc3cc(-c4cc(C#N)n5c4CC(C)(C)C5)c(Cl)cn3)C[C@@H]2C1 (single isomer, unassigned) [Compound 14-2-2] | 7.98 | 7.35 | –
CC(=O)N1CC[C@@]2(CC[C@H](C(=O)Nc3cc(-c4cnn5c4CC(C)(C)C5)c(Cl)cn3)C2)C1 (single isomer, unassigned) [Compound 18-1] | 8.49 | 8.85 | –
CC(=O)N1CC[C@@]2(CC[C@@H](C(=O)Nc3cc(-c4cnn5c4CC(C)(C)C5)c(Cl)cn3)C2)C1 (single isomer, unassigned) [Compound 19-1] | 8.26 | 7.91 | –
CC(=O)N1CC[C@]2(CC[C@H](C(=O)Nc3cc(-c4cnn5c4CC(C)(C)C5)c(Cl)cn3)C2)C1 (single isomer, unassigned) [Compound 19-2] | – | 7.07 | –
CC1(C)Cc2c(-c3cc(NC(=O)[C@H]4CCC[C@H](c5cccnc5)C4)ncc3Cl)cnn2C1 (single isomer, unassigned) [Compound 20-1] | 7.54 | 6.45 | –
CC1(C)Cc2c(-c3cc(NC(=O)[C@@H]4CCC[C@H](c5cccnc5)C4)ncc3Cl)cnn2C1 (single isomer, unassigned) [Compound 20-2] | 8.15 | 7.82 | –
CC1(C)Cc2c(-c3cc(NC(=O)[C@H]4CCC[C@@H](c5cccnc5)C4)ncc3Cl)cnn2C1 (single isomer, unassigned) [Compound 20-3] | < 7.00 | < 6.00 | –
CC1(C)Cc2c(-c3cc(NC(=O)[C@@H]4CCC[C@@H](c5cccnc5)C4)ncc3Cl)cnn2C1 (single isomer, unassigned) [Compound 20-4] | 8.55 | 9.30 | –
CC1(C)Cc2c(-c3cc(NC(=O)[C@H]4CCC[C@H](c5ccncc5)C4)ncc3Cl)cnn2C1 (single isomer, unassigned) [Compound 21-1] | – | 7.16 | –
CC1(C)Cc2c(-c3cc(NC(=O)[C@@H]4CCC[C@H](c5ccncc5)C4)ncc3Cl)cnn2C1 (single isomer, unassigned) [Compound 21-2] | – | 7.79 | –
CC1(C)Cc2c(-c3cc(NC(=O)[C@H]4CCC[C@@H](c5ccncc5)C4)ncc3Cl)cnn2C1 (single isomer, unassigned) [Compound 21-3] | 8.55 | 8.20 | –
CC1(C)Cc2c(-c3cc(NC(=O)[C@@H]4CCC[C@@H](c5ccncc5)C4)ncc3Cl)cnn2C1 (single isomer, unassigned) [Compound 21-4] | – | 7.14 | –
Cn1cc([C@@H]2CCC[C@H](C(=O)Nc3cc(-c4cnn5c4CC(C)(C)C5)c(Cl)cn3)C2)cn1 (single isomer, unassigned) [Compound 23-1] | 8.42 | 8.10 | –
CC(=O)N[C@H]1C[C@@H]2C[C@@H](C(=O)Nc3cc(-c4cc(C(N)=O)n5c4CC(C)(C)C5)c(Cl)cn3)C[C@@H]2C1 (single isomer, unassigned) [Compound 24-1] | 8.42 | 8.23 | –
CC(=O)N[C@@H]1CCC[C@H](C(=O)Nc2cc(-c3cnn4c3CC(C)(C)C4)c(Cl)cn2)C1 [AZD4573, reference compound] | – | 8.38 | –
CC(=O)N1C[C@H]2C[C@H](C(=O)Nc3cc(-c4cnn5c4CC(C)(C)C5)c(Cl)cn3)C[C@H]2C1 [Compound 4-1, (3aR,5s,6aS)-2-acetyl-N-(5-chloro-4-(5,5-dimethyl-5,6-dihydro-4H-pyrrolo[1,2-b]pyrazol-3-yl)pyridin-2-yl)octahydrocyclopenta[c]pyrrole-5-carboxamide] | – | 7.83 | –
CC(=O)N1C[C@H]2C[C@@H](C(=O)Nc3cc(-c4cc(C#N)n5c4CC(C)(C)C5)c(Cl)cn3)C[C@H]2C1 [Compound 7-2, (3aR,5r,6aS)-2-acetyl-N-(5-chloro-4-(5-cyano-2,2-dimethyl-2,3-dihydro-1H-pyrrolizin-7-yl)pyridin-2-yl)octahydrocyclopenta[c]pyrrole-5-carboxamide] | – | 8.07 | –
CC(=O)N[C@@H]1CCC[C@H](C(=O)Nc2cc(-c3cc(C#N)n4c3CC(C)(C)C4)c(F)cn2)C1 [Compound 10, (1S,3R)-3-acetamido-N-(4-(5-cyano-2,2-dimethyl-2,3-dihydro-1H-pyrrolizin-7-yl)-5-fluoropyridin-2-yl)cyclohexane-1-carboxamide] | – | 7.57 | –
CC(=O)N[C@@H]1CCC[C@H](C(=O)Nc2cc(-c3cc(C#N)n4c3CC(C)(C)C4)ccn2)C1 [Compound 11, (1S,3R)-3-acetamido-N-(4-(5-cyano-2,2-dimethyl-2,3-dihydro-1H-pyrrolizin-7-yl)pyridin-2-yl)cyclohexane-1-carboxamide] | – | 8.66 | –
CC(=O)N[C@@H]1CCC[C@H](C(=O)Nc2cc(-c3cc(C#N)c4n3CC(C)(C)C4)c(Cl)cn2)C1 [Compound 16, (1S,3R)-3-acetamido-N-(5-chloro-4-(7-cyano-2,2-dimethyl-2,3-dihydro-1H-pyrrolizin-5-yl)pyridin-2-yl)cyclohexane-1-carboxamide] | 8.54 | – | –
CC(=O)N[C@@H]1CCC[C@H](C(=O)Nc2cc(-c3cc(C(N)=O)c4n3CC(C)(C)C4)ccn2)C1 [Compound 28, 5-(2-((1S,3R)-3-acetylaminocyclohexane-1-carboxamido)pyridin-4-yl)-2,2-dimethyl-2,3-dihydro-1H-pyrrolizine-7-carboxamide] | – | 7.44 | –
CC(=O)N[C@@H]1CCC[C@H](C(=O)Nc2cc(-c3cc(C(N)=O)n4c3CC(C)(C)C4)c(F)cn2)C1 [Compound 33, 7-(2-((1S,3R)-3-acetylaminocyclohexane-1-carboxamido)-5-fluoropyridin-4-yl)-2,2-dimethyl-2,3-dihydro-1H-pyrrolizine-5-carboxamide] | – | 8.89 | –
CC(=O)N[C@@H]1C[C@@H]2C[C@H](C(=O)Nc3cc(-c4cc(C(N)=O)n5c4CC(C)(C)C5)c(F)cn3)C[C@@H]2C1 [Compound 34-2, 7-(2-((2s,3aR,5r,6aS)-5-acetylaminooctahydropentalene-2-carboxamido)-5-fluoropyridin-4-yl)-2,2-dimethyl-2,3-dihydro-1H-pyrrolizine-5-carboxamide] | – | 8.05 | –
